Results: patent US4902685A, “2-amino-3-cyano-bicyclic pyridines/pyrazines as inhibitors of interleukin 1” (American Home Products Corporation, priority 1988, dated 1990)

What follows are compounds tested on IL 1-induced release of neutral protease from rabbit articular chondrocytes (assay: inhibition of IL 1-induced release of neutral protease from rabbit articular chondrocytes (azocoll assay)). Details: Oryctolagus cuniculus, Chondrocyte; dose 1 μM; human IL 1; 24 h; relative to vehicle-treated chondrocytes; read-out: % Inhibition (I.S.D.).
Assay type: cell-based
Procedure: The ability of the compounds of the inventions to inhibit interleukin 1 is measured by the ability of the test compounds to inhibit the IL 1-induced release of neutral protease from rabbit articular chondrocytes.
This assay is carried out as follows:
Isolation of rabbit chondrocytes:
Male New Zealand White rabbits are anesthetized with 50 mg/kg of ketamine (i.m.) and killed by an intracardiac injection of 3 mls. of Nembutal. The knee joints of both legs are resected and the articular surfaces are exposed. Cartilate slices are obtained using a scalpel and are placed in a tissue culture dish (100 mm diameter) containing 10 mls of Hank's balanced salt solution (HBSS). The chrondrocytes within the cartilage slices are then liberated by a series of enzyme digestions. The slices are incubated for 10 min. at 37° C. in 0.05% hyaluronidase (Sigma H-3884), rinsed with HBSS and incubated with 0.2% trypsin (Sigma T-2395)for 10 min. at 37° C. The slices are rinsed again and incubated for 10 mins. at 37° C. with 1.2% collagenase (Sigma C-5138). The slices are then rinsed again with HBSS and resuspended in 10 ml of Ham's F-12 medium containing 10% fetal bovine calf serum (FCS) and 0.2% collagenase and incubated overnight at 37° C. in a 5% CO2 incubator. The next day, the medium containing the digested cartilage fragments and liberated chondrocytes is transferred to a 15 ml centrifuge tube and the cells are collected by centrifugation and washed twice and resuspended in Ham's F-12 medium. The cells are then placed into 24-well tissue culture plates (2×10^5 cells/well) and incubated at 37° C. until confluent (usually 4-6 days).
Stimulation of chondrocytes and drug treatment:
The confluent chondrocytes are rinsed twice with serum-free Ham's F-12 medium and 1 ml is added to each well. Fifty μl of purified human IL 1 (100 Units/ml; Genzyme Corporation, Boston, MA) is then added to stimulate these cells to secrete neutral protease. To measure drug effects, the cells are treated with test compound 10 min. prior to addition of IL 1. The standard screening dose is 10 μM. Twenty-four hours after IL 1 stimulation, supernatant fluids are collected and assayed for neutral protease activity.
The neutral protease activity of chrondrocyte supernatant fluids is determined by their ability to degrade an insoluble protease substrate, azocoll (Sigma). Supernatants are treated for 10 min. at room temperature with 350 μM p-aminophenylmercuric acetate to activate the latent enzyme. Three hundred μl of supernatant is then mixed with 500 μl of a 20 mg/ml suspension of azocoll and incubated at 37° C. for 18-24 hrs. with gentle rocking. The mixtures are centrifuged and the amount of substrate hydrolyzed is determined by measuring the absorbance of the supernatant at 520 nm.
Drug effects are calculated as the % change in enzyme activity (absorbance)by supernatants from drug-treated chrondrocytes relative to enzyme activity of supernatants from vehicle-treated chondrocytes as follows: [formula]

Row | Structure (SMILES) | inhibition at 1 µM [%]
1 | N#Cc1cc2c(nc1N)CCCC2 [Example 5, 2-Amino-5,6,7,8-tetrahydro-3-quinolinecarbonitrile] | 60

Same assay, conditions: Oryctolagus cuniculus, Chondrocyte; dose 10 μM; human IL 1; 24 h; relative to vehicle-treated chondrocytes; read-out: % Inhibition (I.S.D.)

Row | Structure (SMILES) | inhibition at 10 µM [%]
2 | N#Cc1ccc(N2CCc3nc(N)c(C#N)cc3C2)cc1 [Example 1, 2-Amino-6-(4-cyanophenyl)-5,6,7,8-tetrahydro-1,6-naphthyridine-3-carbonitrile] | 18
3 | N#Cc1ccc(N2CCc3nc(N)c(C#N)nc3C2)cc1 [Example 2, 2-Amino-6-(4-cyanophenyl)-5,6,7,8-tetrahydropyrido[3,4-b]pyrazine-3-carbonitrile] | 37
4 | CS(=O)(=O)c1ccc(N2CCc3nc(N)c(C#N)cc3C2)cc1 [Example 3, 2-Amino-5,6,7,8-tetrahydro-6-[4-(methylsulfonyl)phenyl]-1,6-naphthyridine-3-carbonitrile] | 59
5 | N#Cc1cc2c(nc1N)CCCC2 [Example 5, 2-Amino-5,6,7,8-tetrahydro-3-quinolinecarbonitrile] | 59
6 | N#Cc1nc2c(nc1N)CCCC2 [Example 4, 2-Amino-5,6,7,8-tetrahydro-3-quinoxalinecarbonitrile] | 41
